Patent publication US20180353501A1 (Arvinas, Inc., priority 2017, published 2018)

How the values were obtained:
[1] = target: T1, MAK (Homo sapiens, UniProt P20794); test: KINOMEscan in vitro kinase binding; conditions: screened at 1000 nM; lower number = stronger binding
T1 construct: purchased DiscoverRx Corporation (KINOMEscan platform, service)
Procedure: In Vitro Kinase Binding Affinity Determination for Example 1 and Example 2.
PROTAC in vitro binding affinities (Kd) to c-Met was determined using the KINOMEscan™ platform (DiscoverRx Corporation). The compounds were solubilized in DMSO and sent to DiscoverRx Corporation as 10 μM stock solutions.
Example 1 and Example 2 were screened at a 1000 nM concentration, and the results of the binding interactions are reported in “% Ctrl”, where a lower number indicates stronger binding. % Ctrl=[(test compound signal−positive control signal)/(negative control signal−positive control signal)]×100, wherein the negative control was DMSO.

[2] = target: T2, FLAG-p38δ (Homo sapiens, UniProt O15264); test: TUBE1 immunoprecipitation of polyubiquitinated p38δ, HeLa cells; type: cell-based; conditions: 1 μM, 3 hours
T2 construct: expressed in transfected cells; host or cells: HeLa cells, transient transfection with Lipofectamine 2000
T2 sequence (O15264 1-365): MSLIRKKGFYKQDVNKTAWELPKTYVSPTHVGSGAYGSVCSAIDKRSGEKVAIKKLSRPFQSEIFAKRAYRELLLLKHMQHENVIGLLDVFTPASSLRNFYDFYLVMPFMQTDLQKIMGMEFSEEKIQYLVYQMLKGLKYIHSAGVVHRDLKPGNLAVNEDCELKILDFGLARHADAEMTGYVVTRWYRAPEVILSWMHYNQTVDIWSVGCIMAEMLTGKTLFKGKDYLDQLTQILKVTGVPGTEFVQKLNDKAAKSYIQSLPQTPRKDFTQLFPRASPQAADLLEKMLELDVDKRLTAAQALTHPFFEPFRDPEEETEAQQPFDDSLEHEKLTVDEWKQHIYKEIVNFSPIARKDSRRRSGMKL
Procedure: FIG. 18. Exemplary compound 46 induces polyubiquitination of p38δ. (A) HeLa cells were co-transfected with HA-Ub and FLAG p38δ and treated with vehicle (DMSO), 1 μM of compound 50, or 1 μM of compound 46 for 3 hours. Lysates were immunoprecipitated with tandem ubiquitin binding entity (TUBE1) agarose beads and assessed by western blots detecting FLAG (p38δ). TUBE1 binds tetra ubiquitin chains with high affinity, thereby enriching for polyubiquitinated proteins. In this assay, HA (Ub) serves as an immunoprecipitation control for poly-Ub TUBE1 enrichment.
Based on these exemplary compound 50-induced and exemplary compound 46-induced ternary complex affinity differences, both in vitro and in cells, whether they were predictive of PROTAC-induced p38δ cellular ubiquitination was examined.
TUBE1 immunoprecipitation experiments were carried out exactly as described above, except for the fact that 1 mg of normalized HeLa lysate was loaded onto 20 μL TUBE1 agarose (LifeSensors) resin per sample.

[3] = target: T3, His-p38α:PROTAC:GST-VBC ternary complex (Homo sapiens, UniProt P40337+Q16539); test: AlphaLISA ternary complex assay; type: binding; conditions: increasing PROTAC concentrations; VBC and p38α 150 nM
T3 construct: encodes a region spanning amino acids 2-360 of the human p38α kinase; made in house; host or cells: E. coli (BL21-CodonPlus(DE3)-RIPL for p38α; BL21(DE3) for GST-VBC)
Procedure: FIGS. 14A, 14B, and 14C. p38α selectivity is discriminated by ternary complex formation. (A) Only p38α incubated in the presence of exemplary compound 50 can be immunoprecipitated with GST-tagged VHL/EloB/EloC (VBC). Immobilized VBC was used as a bait to trap purified p38α in the presence of vehicle (DMSO), compound 50, or compound 46 (represented in micromolar concentrations). The rightmost lane represents a 1:25 dilution of initial input protein used in each pull-down. (B) Proximity-based AlphaLISA assay detects significant p38α:compound 50:VHL ternary complex, but no p38α:compound 46:VHL ternary complex. His-p38α and GST-VBC were incubated in the presence of increasing concentrations of compound 50 and compound 46 and the extent of ternary complex formation was assessed by excitation with incident light with 1=680 nm and capture of the emission light at 1=615 nm. Error bars represent the SD from quadruplicate experiments. […] FLAGimmunoprecipitated lysates were separated by SDS-PAGE and assessed via western blots detecting HA (Ub). […]
Following this logic, to the present disclosure seeks to describe the selectivity of exemplary compound 50 for p38α at the ternary complex level through the use of an in vitro ternary complex pull-down assay. […] Similarly, exemplary PROTACs 46 and 50 were evaluated in a proximity-based luminescence assay (AlphaLISA) to detect ternary complex formation. […]

T3 sequence (Q16539 2-360 limits assumed): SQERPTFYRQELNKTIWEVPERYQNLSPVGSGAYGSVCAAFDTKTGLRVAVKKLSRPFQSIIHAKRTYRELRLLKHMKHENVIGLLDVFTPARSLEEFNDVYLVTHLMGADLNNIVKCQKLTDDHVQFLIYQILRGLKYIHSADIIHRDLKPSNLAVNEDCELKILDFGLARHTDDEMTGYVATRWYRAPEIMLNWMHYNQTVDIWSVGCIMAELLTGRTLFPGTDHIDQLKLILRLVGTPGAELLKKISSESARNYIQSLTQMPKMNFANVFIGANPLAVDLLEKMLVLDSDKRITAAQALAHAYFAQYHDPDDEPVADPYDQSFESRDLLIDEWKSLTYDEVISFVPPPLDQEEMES
T3 sequence (P40337 whole entry, the tested form may be a part): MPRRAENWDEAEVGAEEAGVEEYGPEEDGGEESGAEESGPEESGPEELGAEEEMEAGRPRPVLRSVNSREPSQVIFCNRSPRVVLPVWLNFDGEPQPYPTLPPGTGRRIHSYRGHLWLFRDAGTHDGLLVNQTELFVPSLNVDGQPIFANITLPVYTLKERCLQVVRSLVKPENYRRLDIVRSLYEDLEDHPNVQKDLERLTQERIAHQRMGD
T3 sequence (Q15370 whole entry partner, the tested form may be a part): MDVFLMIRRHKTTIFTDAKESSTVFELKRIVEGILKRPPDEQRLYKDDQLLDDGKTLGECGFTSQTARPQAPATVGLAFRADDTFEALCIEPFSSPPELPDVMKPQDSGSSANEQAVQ
T3 sequence (Q15369 whole entry partner, the tested form may be a part): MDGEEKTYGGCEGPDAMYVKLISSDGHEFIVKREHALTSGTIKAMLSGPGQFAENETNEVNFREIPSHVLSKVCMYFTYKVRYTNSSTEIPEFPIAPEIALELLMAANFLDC
T1 sequence (P20794 whole entry): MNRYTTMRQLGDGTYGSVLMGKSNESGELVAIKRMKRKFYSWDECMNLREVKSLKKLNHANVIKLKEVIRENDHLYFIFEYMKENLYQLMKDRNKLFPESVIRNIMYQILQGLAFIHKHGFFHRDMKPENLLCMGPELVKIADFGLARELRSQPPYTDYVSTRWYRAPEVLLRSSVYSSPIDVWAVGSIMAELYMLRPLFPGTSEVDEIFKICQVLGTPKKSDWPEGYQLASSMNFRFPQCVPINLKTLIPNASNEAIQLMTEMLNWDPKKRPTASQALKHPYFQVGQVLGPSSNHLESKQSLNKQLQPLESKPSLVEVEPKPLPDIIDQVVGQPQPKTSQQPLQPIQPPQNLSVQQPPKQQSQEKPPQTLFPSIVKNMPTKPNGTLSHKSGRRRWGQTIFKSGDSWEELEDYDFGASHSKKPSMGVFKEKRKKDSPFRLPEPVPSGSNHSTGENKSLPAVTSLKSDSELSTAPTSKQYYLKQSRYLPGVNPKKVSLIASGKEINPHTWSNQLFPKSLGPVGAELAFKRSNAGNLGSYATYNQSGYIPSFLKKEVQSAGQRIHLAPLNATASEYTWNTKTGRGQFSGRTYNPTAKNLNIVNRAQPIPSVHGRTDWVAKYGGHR

| % Ctrl [1] | TUBE1-reactivity (poly-Ub p38δ) [2] | Structure (SMILES) | p38α:PROTAC:VHL ternary complex formation (AlphaLISA) [3] |
| --- | --- | --- | --- |
| 92 % Ctrl | – | COc1cc2c(Oc3ccc(NC(=O)C4(C(=O)Nc5ccc(F)cc5)CC4)cc3F)ccnc2cc1OCCCOCCCOCCC(=O)N[C@H](C(=O)N1C[C@H](O)C[C@H]1C(=O)NCc1ccc(-c2scnc2C)cc1)C(C)(C)C [Example 1] | – |
| – | increased TUBE1-reactivity | COc1cc2c(Oc3ccc(NC(=O)C4(C(=O)Nc5ccc(F)cc5)CC4)cc3F)ccnc2cc1OCCOCCOCCOc1cc(-c2scnc2C)ccc1CNC(=O)[C@@H]1C[C@@H](O)CN1C(=O)[C@H](C(C)C)N1Cc2ccccc2C1=O [compound 46] | no such ternary species is detectable |
| – | – | COc1cc2c(Oc3ccc(NC(=O)C4(C(=O)Nc5ccc(F)cc5)CC4)cc3F)ccnc2cc1OCCCCOCCCCOCC(=O)N[C@H](C(=O)N1C[C@H](O)C[C@H]1C(=O)NCc1ccc(-c2scnc2C)cc1)C(C)(C)C [compound 50, N-(3-fluoro-4-((7-(4-(4-(2-(((S)-1-((2S,4R)-4-hydroxy-2-((4-(4-methylthiazol-5-yl)benzyl)carbamoyl)pyrrolidin-1-yl)-3,3-dimethyl-1-oxobutan-2-yl)amino)-2-oxoethoxy)butoxy)buto-xy)-6-methoxyquinolin-4-yl)oxy)phenyl)-N-(4-fluorophenyl)cyclopropane-1,1-dicarboxa-mide] | displays a ternary VHL:PROTAC:p38α complex |
